The target in data set [1] is T1, ATP-dependent translocase ABCB1 (Homo sapiens, UniProt P08183). Kind of data set: TP_TRANSPORTER: drug resistance (vinblastine) in K562/R10 cells. Format: functional, cell-based.
Data set [2] addresses T1, ATP-dependent translocase ABCB1. The data set can be described thus: TP_TRANSPORTER: increase in Doxorubicin intracellular accumulation (Doxorubicin: […]) in K562/R10 cells. It is filed as functional, cell-based.

Structures are written as SMILES.

T1 sequence (P08183 whole entry): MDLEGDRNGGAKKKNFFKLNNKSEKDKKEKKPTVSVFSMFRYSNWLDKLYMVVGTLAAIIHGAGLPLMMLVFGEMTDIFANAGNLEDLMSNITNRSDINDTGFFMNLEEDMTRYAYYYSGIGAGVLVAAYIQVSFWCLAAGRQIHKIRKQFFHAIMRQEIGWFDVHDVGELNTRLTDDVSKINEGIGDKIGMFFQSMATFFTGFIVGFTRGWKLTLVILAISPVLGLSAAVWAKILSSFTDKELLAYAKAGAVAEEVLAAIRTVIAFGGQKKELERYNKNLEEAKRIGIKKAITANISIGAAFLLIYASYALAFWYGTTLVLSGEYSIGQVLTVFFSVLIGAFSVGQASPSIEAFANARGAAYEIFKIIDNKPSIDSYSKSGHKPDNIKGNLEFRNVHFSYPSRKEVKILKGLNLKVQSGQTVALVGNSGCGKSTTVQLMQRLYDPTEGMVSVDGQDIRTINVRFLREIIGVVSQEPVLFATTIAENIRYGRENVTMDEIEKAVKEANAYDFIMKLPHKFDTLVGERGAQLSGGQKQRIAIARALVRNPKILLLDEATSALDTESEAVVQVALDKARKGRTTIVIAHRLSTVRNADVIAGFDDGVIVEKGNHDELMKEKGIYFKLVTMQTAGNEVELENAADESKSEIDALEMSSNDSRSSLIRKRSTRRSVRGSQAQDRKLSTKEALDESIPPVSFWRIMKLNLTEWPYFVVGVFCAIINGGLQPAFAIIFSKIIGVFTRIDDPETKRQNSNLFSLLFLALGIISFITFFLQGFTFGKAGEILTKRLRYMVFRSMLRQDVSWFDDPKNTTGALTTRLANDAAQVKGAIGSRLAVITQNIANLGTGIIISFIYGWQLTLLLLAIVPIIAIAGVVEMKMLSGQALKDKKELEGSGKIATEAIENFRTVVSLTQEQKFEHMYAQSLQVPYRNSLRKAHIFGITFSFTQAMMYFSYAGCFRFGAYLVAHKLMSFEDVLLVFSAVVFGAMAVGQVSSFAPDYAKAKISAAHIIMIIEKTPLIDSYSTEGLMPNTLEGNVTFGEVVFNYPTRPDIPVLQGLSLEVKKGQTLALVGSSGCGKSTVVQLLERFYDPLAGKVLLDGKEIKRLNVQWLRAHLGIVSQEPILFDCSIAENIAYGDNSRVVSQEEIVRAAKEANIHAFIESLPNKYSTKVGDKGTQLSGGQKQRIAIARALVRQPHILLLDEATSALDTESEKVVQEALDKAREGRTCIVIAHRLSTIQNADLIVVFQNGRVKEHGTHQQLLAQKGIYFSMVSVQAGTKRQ

For `C=CCSCC=C` [DIALLYL SULFIDE], the Activity entry in data set [1] and in data set [2] was “inhibitor [+]” in each case.

The values are drawn from ChEMBL document CHEMBL2074024, “Reversal of P-glycoprotein-mediated multidrug resistance by diallyl sulfide in K562 leukemic cells and in mouse liver” (Carcinogenesis, 2004).
